Laboratory results as given in patent US20210369710A1, “MODULATORS OF MYC FAMILY PROTO-ONCOGENE PROTEIN” (Nalo Therapeutics, priority 2019, published 2021).

How the values were obtained:
[1] = biological target: T1, MycN Protein (Homo sapiens, UniProt P04198); experiment: Degradation of MycN protein, Western blot band density in cells; type: cell-based; conditions: HL-60 or SKNBE2 cells; 6 uL of compound (1 mM) added to 3 mL cells; 6 hours; Western blot band density (ImageJ)
T1 construct: endogenous in cells; host or cells: HL-60 or SKNBE2
T1 sequence (P04198 1-464): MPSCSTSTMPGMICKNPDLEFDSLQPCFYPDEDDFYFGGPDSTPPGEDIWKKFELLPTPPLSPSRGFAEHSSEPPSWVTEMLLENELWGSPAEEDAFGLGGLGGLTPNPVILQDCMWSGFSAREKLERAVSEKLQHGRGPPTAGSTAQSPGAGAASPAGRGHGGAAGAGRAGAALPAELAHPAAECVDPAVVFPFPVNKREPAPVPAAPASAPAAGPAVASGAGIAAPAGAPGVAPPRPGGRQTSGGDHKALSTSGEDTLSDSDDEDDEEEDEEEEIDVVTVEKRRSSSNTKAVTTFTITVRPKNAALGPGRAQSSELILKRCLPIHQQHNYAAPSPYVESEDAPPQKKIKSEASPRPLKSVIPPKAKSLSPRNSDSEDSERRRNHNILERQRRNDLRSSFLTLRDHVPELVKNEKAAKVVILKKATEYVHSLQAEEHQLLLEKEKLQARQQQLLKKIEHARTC
How it was run: (§1)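 HL-60 leukemia or SKNBE2 neuroblastoma cells (3×10^6 per well, passages below 40) were exposed for 6 h to compound added from a 1 mM stock. RIPA lysates (25-30 ug protein) were run on SDS-PAGE and immunoblotted for c-Myc or MycN. Band density was quantified from the western images.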

[2] = biological target: T2, MycC Protein (Homo sapiens, UniProt P01106); experiment: Degradation of MycC protein, Western blot band density in cells; type: cell-based; conditions: HL-60 or SKNBE2 cells; 6 uL of compound (1 mM) added to 3 mL cells; 6 hours; Western blot band density (ImageJ)
T2 construct: endogenous in cells; host or cells: HL-60 or SKNBE2
T2 sequence (P01106 whole entry): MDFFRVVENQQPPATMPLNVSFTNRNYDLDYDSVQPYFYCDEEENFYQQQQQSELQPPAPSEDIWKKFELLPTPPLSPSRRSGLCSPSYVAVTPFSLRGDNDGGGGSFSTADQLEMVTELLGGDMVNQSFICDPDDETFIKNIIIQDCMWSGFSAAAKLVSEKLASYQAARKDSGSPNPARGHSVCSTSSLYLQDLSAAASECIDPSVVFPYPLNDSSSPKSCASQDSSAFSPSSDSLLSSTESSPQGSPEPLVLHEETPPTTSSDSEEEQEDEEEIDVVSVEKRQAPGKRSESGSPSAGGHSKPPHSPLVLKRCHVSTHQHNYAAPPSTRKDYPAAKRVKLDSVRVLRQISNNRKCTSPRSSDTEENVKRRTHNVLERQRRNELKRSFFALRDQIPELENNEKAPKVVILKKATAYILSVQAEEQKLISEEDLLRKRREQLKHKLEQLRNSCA
How it was run: as §1

Dmax at 2 µM [1] [%]	Dmax at 2 µM [2] [%]	% Degradation of MycN [1]	% Degradation of MycC [2]	SMILES
80 to 100	50 to 79			CN(c1nccc(Nc2cc(C3CC(F)(F)C3)[nH]n2)n1)[C@H]1CC[C@H](NC(=O)NC2Cc3ccc(C#N)cc3C2)CC1 (stereo partly drawn) [Compound 145, 1-(5-cyano-2,3-dihydro-1H-inden-2-yl)-3-((1R,4R)-4-((4-((5-(3,3-difluorocyclobutyl)-1H-pyrazol-3-yl)amino)pyrimidin-2-yl)(methyl)amino)cyclohexyl)urea]
80 to 100	50 to 79			CN(c1nccc(Nc2cc(C3CC4(CC4)C3)[nH]n2)n1)[C@H]1CC[C@H](NC(=O)NC2Cc3ccc(C#N)cc3C2)CC1 (stereo partly drawn) [Compound 148, 1-(5-cyano-2,3-dihydro-1H-inden-2-yl)-3-((1R,4R)-4-(methyl(4-((5-(spiro[2.3]hexan-5-yl)-1H-pyrazol-3-yl)amino)pyrimidin-2-yl)amino)cyclohexyl)urea]
50 to 79	< 20			CN(c1nccc(Nc2cc(C3CCC(F)(F)C3)[nH]n2)n1)[C@H]1CC[C@H](NC(=O)NC2Cc3ccc(C#N)cc3C2)CC1 (stereo partly drawn) [Compound 149, 1-(5-cyano-2,3-dihydro-1H-inden-2-yl)-3-((1R,4R)-4-((4-((5-(3,3-difluorocyclopentyl)-1H-pyrazol-3-yl)amino)pyrimidin-2-yl)(methyl)amino)cyclohexyl)urea]
80 to 100	80 to 100			CN(c1nccc(Nc2cc(C3CC3)[nH]n2)n1)[C@H]1CC[C@H](NC(=O)NC2Cc3ccccc3C2)CC1 [Compound 150, 1-((1R,4R)-4-((4-((5-cyclopropyl-1H-pyrazol-3-yl)amino)pyrimidin-2-yl)(methyl)amino)cyclohexyl)-3-(2,3-dihydro-1H-inden-2-yl)urea]
		**** (****: degradation 80-100%)	**** (****: degradation 80-100%)	COCCN(c1nccc(Nc2cc(C3CC3)[nH]n2)n1)C1CCC(NC(=O)NC2Cc3ccc(C#N)cc3C2)CC1 [Compound 152, 1-(5-cyano-2,3-dihydro-1H-inden-2-yl)-3-((1R,4R)-4-((4-((5-cyclopropyl-1H-pyrazol-3-yl)amino)pyrimidin-2-yl)(2-methoxyethyl)amino)cyclohexyl)urea]
20 to 49	50 to 79			CN(C(=O)N[C@H]1CC[C@H](N(C)c2nccc(Nc3cc(C4CCCC4)[nH]n3)n2)CC1)C1Cc2ccc(C#N)cc2C1 (stereo partly drawn) [Compound 153, 1-(5-cyano-2,3-dihydro-1H-inden-2-yl)-3-((1R,4R)-4-((4-((5-cyclopentyl-1H-pyrazol-3-yl)amino)pyrimidin-2-yl)(methyl)amino)cyclohexyl)-1-methylurea]
